Drawing on patent publication US20260000676A1, “CHROMAN DERIVATIVES AS ESTROGEN RECEPTOR DEGRADERS” (THE REGENTS OF THE UNIVERSITY OF MICHIGAN, priority 2022, published 2026), this text covers Dmax and DC50 for 17 molecules.

Where a name gives a salt, the structure may show the parent alone. Bounds are passed on as bounds.

For experiment [1], the target named is T1, ER (Homo sapiens (Human), UniProt P03372). Description: In-cell western (ICW) ER degradation assay in MCF-7 cells. It is filed as cell-based. The settings on record: MCF7, 16 hrs; for Dmax: MCF7, maximal ER degradation; for DC50: ER degradation. As to the method:
(§1) ERa degradative activity of compounds can be assessed in MCF-7 and T47D Cells. MCF-7 and T47D cell are seeded and are subsequently treated with the compounds at certain concentrations (e.g., 0.02 to 300 nM). DMSO can be used as vehicle control. Cells are fixed and are blocked with Intercept (PBS) Blocking Buffer (e.g., Li-COR, Odyssey Blocking Buffer), and are stained with ER (e.g., 1:500, Cell signaling) primary antibody for overnight at cold room. Secondary Antibody (e.g., IRDye 800CW Goat anti-Rabbit IgG) and CellTag 700 Stain are added in Intercept (PBS) Blocking Buffer. Finally, cell plate is placed in incubator to dry. Image and signal are captured on Odyssey® DLx Imaging System.
(§2) Day 3: After 16 hrs of compounds treatment, cells were fixed by 4% PFA and permeabilized with elution buffer (0.1% Triton X-100 in 1% PBS Solution). Subsequently, cells were blocked with Intercept (PBS) Blocking Buffer (Li-COR, Odyssey Blocking Buffer), and were stained with ER (1:500, Cell signaling) primary antibody for overnight at cold room.
(§3) Day 4: Remove the buffer, add IRDye 800CW Goat anti-Rabbit IgG Secondary Antibody (1:2000) and CellTag 700 Stain (1:500) in Intercept (PBS) Blocking Buffer. Finally, cell plate is placed in incubator to dry. Image and signal were captured on Odyssey® DLx Imaging System.

The target in experiment [2] is T1, ER. Description: In-cell western (ICW) ER degradation assay in T47D cells. It is filed as cell-based. The settings on record: 16 hrs; for Dmax: maximal ER degradation; for DC50: ER degradation. As to the method: as §1, §2, §3

For orientation: Dmax means the largest share of the target that was removed. Read a low Dmax as a partial loss of target. For orientation: DC50 means the concentration at which degradation of the target reaches its halfway point.

T1 sequence (P03372 whole entry): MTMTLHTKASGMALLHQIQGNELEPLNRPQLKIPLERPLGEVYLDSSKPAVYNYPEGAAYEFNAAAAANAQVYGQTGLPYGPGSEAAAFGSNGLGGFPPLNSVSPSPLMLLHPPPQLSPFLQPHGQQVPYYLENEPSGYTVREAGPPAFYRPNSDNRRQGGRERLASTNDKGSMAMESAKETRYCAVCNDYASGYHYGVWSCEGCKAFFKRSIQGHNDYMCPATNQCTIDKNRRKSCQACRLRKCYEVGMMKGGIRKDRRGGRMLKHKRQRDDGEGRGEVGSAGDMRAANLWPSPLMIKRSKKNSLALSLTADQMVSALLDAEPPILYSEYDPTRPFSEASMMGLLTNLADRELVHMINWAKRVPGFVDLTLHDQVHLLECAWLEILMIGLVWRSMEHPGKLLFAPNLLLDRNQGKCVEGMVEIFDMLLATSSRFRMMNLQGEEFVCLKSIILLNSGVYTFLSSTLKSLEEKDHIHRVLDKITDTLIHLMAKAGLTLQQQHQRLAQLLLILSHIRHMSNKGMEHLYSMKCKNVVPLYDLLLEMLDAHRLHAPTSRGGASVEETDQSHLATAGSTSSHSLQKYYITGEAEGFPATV

In the case of `COc1cccc([C@H]2COc3cc(O)ccc3[C@H]2c2ccc(N3CCC(CN4CCN5c6ccc7c(c6OC[C@H]5C4)CN(C4CCC(=O)NC4=O)C7=O)CC3)cc2)c1` (single isomer, unassigned) [Compound A33, 3-((R)-7-((1-(4-((3S,4R)-7-hydroxy-3-(3-methoxyphenyl)chroman-4-yl)phenyl)piperidin-4-yl)methyl)-1-oxo-1,3,5,5a,6,7,8,9-octahydro-2H-pyrazino[1′,2′:4,5][1,4]oxazino[2,3-e]isoindol-2-yl)piperidine-2,6-dione], the Dmax in experiment [1] and in experiment [2] was 50 to 75% in each case.

With `COc1ccc([C@H]2COc3cc(O)ccc3[C@H]2c2ccc(N3CCC(CN4CCN5c6ccc7c(c6OC[C@H]5C4)CN(C4CCC(=O)NC4=O)C7=O)CC3)cc2)cc1` (single isomer, unassigned) [Compound A16, 3-((R)-7-((1-(4-((3S,4R)-7-hydroxy-3-(4-methoxyphenyl)chroman-4-yl)phenyl)piperidin-4-yl)methyl)-1-oxo-1,3,5,5a, 6,7,8,9-octahydro-2H-pyrazino[1′,2′:4,5][1,4]oxazino[2,3-e]isoindol-2-yl)piperidine-2,6-dione], the DC50 in experiment [1] is under 1 nM.

As for `COc1ccc([C@H]2COc3cc(O)ccc3[C@H]2c2ccc(N3CCC(CN4CCN5c6ccc7c(c6OC[C@H]5C4)CN(C4CCC(=O)NC4=O)C7=O)CC3)cc2)cc1` (single isomer, unassigned) [Compound A16], the Dmax in experiment [1] is 50 to 75%.

In experiment [2], `O=C1CCC(N2Cc3cc4c(cc3C2=O)OCC42CCN(CC3CCN(c4ccc([C@@H]5c6ccc(O)cc6OC[C@@H]5c5ccccc5)cc4)CC3)CC2)C(=O)N1` (stereo partly drawn) [Compound A86, 3-(1′-((1-(4-((3S,4R)-7-hydroxy-3-phenylchroman-4-yl)phenyl)piperidin-4-yl)methyl)-7-oxo-5,7-dihydro-2H,6H-spiro[furo[2,3-f]isoindole-3,4′-piperidin]-6-yl)piperidine-2,6-dione] had a DC50 of under 1 nM and a Dmax of 25 to 50%.

With `O=C1CCC(N2Cc3cc4c(cc3C2=O)OCC42CCN(CC3CC4(CCN(c5ccc([C@@H]6c7ccc(O)cc7OC[C@@H]6c6ccccc6)cc5)CC4)C3)CC2)C(=O)N1` (stereo partly drawn) [Compound A71, 3-(1′-((7-(4-((3S,4R)-7-hydroxy-3-phenylchroman-4-yl)phenyl)-7-azaspiro[3.5]nonan-2-yl)methyl)-7-oxo-5,7-dihydro-2H,6H-spiro[furo[2,3-f]isoindole-3,4′-piperidin]-6-yl)piperidine-2,6-dione], the DC50 in experiment [1] and in experiment [2] was under 1 nM in each case. For the same molecule, the Dmax in experiment [1] and in experiment [2] was 50 to 75% throughout.

As to `O=C1CC[C@@H](N2Cc3c(ccc4c3OC[C@H]3CN(CC5CC6(CCN(c7ccc([C@@H]8c9ccc(O)cc9OC[C@@H]8c8ccccc8)cc7)CC6)C5)CCN43)C2=O)C(=O)N1` (single isomer, unassigned) [Compound A89], the DC50 in experiment [1] and in experiment [2] was under 1 nM each time. The Dmax in experiment [1] and in experiment [2] was at least 75% throughout.

In experiment [1], `O=C1CCC(N2Cc3cc4c(cc3C2=O)OC[C@@H]2CN(CC3CCN(c5ccc([C@@H]6c7ccc(O)cc7OC[C@@H]6c6ccccc6)cc5)CC3)CCN42)C(=O)N1` (single isomer, unassigned) [Compound A1] returned a DC50 of 1 to 10 nM and a Dmax of 50 to 75%.

Consider `COc1cc(N2CCC(CN3CCC(c4ccc(N[C@H]5CCC(=O)NC5=O)cc4)CC3)CC2)ccc1[C@@H]1c2ccc(O)cc2OC[C@@H]1c1ccccc1` (stereo in doubt) [Compound A149, (S)-3-((4-(1-((1-(4-((3S,4R)-7-hydroxy-3-phenylchroman-4-yl)-3-methoxyphenyl)piperidin-4-yl)methyl)piperidin-4-yl)phenyl)amino)piperidine-2,6-dione], for which, in experiment [1], the DC50 was under 1 nM and the Dmax was in the range of 50 to 75%. Besides, in experiment [2], the DC50 was under 1 nM and the Dmax was in the range of 50 to 75%.

Molecule `O=C1CCC(N2Cc3cc4c(cc3C2=O)OC[C@@H]2CN(CC3CCN(c5ccc([C@@H]6c7ccc(O)cc7OC[C@@H]6c6ccccc6)cc5F)CC3)CCN42)C(=O)N1` (single isomer, unassigned) [Compound A2] showed a maximal degradation (Dmax) in experiment [1] of 50 to 75%.

For the molecule `COc1cc(N2CCC(CN3CCN4c5ccc6c(c5OC[C@@H]4C3)CN([C@@H]3CCC(=O)NC3=O)C6=O)CC2)ccc1[C@H]1c2ccc(O)cc2OC[C@H]1c1ccccc1` (single isomer, unassigned) [Compound A121, (R)-3-((S)-7-((1-(4-((3R,4S)-7-hydroxy-3-phenylchroman-4-yl)-3-methoxyphenyl)piperidin-4-yl)methyl)-1-oxo-1,3,5,5a, 6,7,8,9-octahydro-2H-pyrazino[1′,2′:4,5][1,4]oxazino[2,3-e]isoindol-2-yl)piperidine-2,6-dione], the DC50 in experiment [1] and in experiment [2] was under 1 nM in each case.

`O=C1CCC(N2Cc3cc4c(cc3C2=O)OC[C@@H]2CN(CC3CCN(c5ccc([C@@H]6c7ccc(O)cc7OC[C@@H]6c6ccccc6)cc5F)CC3)CCN42)C(=O)N1` (single isomer, unassigned) [Compound A2, 3-((S)-3-((1-(2-fluoro-4-((3S,4R)-7-hydroxy-3-phenylchroman-4-yl)phenyl)piperidin-4-yl)methyl)-8-oxo-1,2,3,4,4a, 5,8,10-octahydro-9H-pyrazino[1′,2′:4,5][1,4]oxazino[2,3-f]isoindol-9-yl)piperidine-2,6-dione] registered a DC50 in experiment [1] of 1 to 10 nM.

As to `O=C1CC[C@@H](N2Cc3c(ccc4c3OC[C@@H]3CN(CC5COC6(CCN(c7ccc([C@@H]8c9ccc(O)cc9OC[C@@H]8c8ccccc8)cc7F)CC6)C5)CCN43)C2=O)C(=O)N1` (single isomer, unassigned) [Compound A158, (3R)-3-((5aS)-7-((8-(2-fluoro-4-((3S,4R)-7-hydroxy-3-phenylchroman-4-yl)phenyl)-1-oxa-8-azaspiro[4.5]decan-3-yl)methyl)-1-oxo-1,3,5,5a,6,7,8,9-octahydro-2H-pyrazino[1′,2′:4,5][1,4]oxazino[2,3-e]isoindol-2-yl)piperidine-2,6-dione], the Dmax is 50 to 75% in experiment [1] and at least 75% in experiment [2].

`O=C1CCC(N2Cc3cc4c(cc3C2=O)OC[C@@H]2CN(CC3CCN(c5ccc([C@@H]6c7ccc(O)cc7OC[C@@H]6c6ccccc6)cn5)CC3)CCN42)C(=O)N1` (single isomer, unassigned) [Compound A70, 3-((S)-3-((1-(5-((3S,4R)-7-hydroxy-3-phenylchroman-4-yl)pyridin-2-yl)piperidin-4-yl)methyl)-8-oxo-1,2,3,4,4a,5,8,10-octahydro-9H-pyrazino[1′,2′:4,5][1,4]oxazino[2,3-f]isoindol-9-yl)piperidine-2,6-dione]: the Dmax in experiment [1] was under 25%; in experiment [2], 25 to 50%.

In experiment [1], `O=C1CC[C@@H](N2Cc3cc4c(cc3C2=O)OC[C@H]2CN(CC3COC5(CCN(c6ccc(C7c8ccc(O)cc8OCC7c7ccccc7)cc6)CC5)C3)CCN42)C(=O)N1` (stereo in doubt) [Compound A139, (3R)-3-((4aR)-3-((8-(4-((3R,4S)-7-hydroxy-3-phenylchroman-4-yl)phenyl)-1-oxa-8-azaspiro[4.5]decan-3-yl)methyl)-8-oxo-1,2,3,4,4a, 5,8,10-octahydro-9H-pyrazino[1′,2′:4,5][1,4]oxazino[2,3-f]isoindol-9-yl)piperidine-2,6-dione] yielded a DC50 of under 1 nM and a Dmax of 50 to 75%. In experiment [2], this molecule registered a DC50 of under 1 nM and a Dmax of 50 to 75%.

`O=C1CCC(N2C(=O)c3cc4c(cc3C2=O)CN(CC(=O)N2CCC3(CC2)CCN(c2ccc([C@@H]5c6ccc(O)cc6OC[C@@H]5c5ccccc5)cc2)CC3)C4)C(=O)N1` (single isomer, unassigned) [Compound A3]: in experiment [1], the DC50 fell in the range of 1 to 10 nM and the Dmax fell in the range of 25 to 50%.

In experiment [1], `O=C1CC[C@@H](N2Cc3c(ccc4c3OCC43CCN(CC4CC5(CCN(c6ccc([C@H]7c8ccc(O)cc8OC[C@H]7c7ccccc7)cc6)CC5)C4)CC3)C2=O)C(=O)N1` [Compound A143, (R)-3-(1′-((7-(4-((3R,4S)-7-hydroxy-3-phenylchroman-4-yl)phenyl)-7-azaspiro[3.5]nonan-2-yl)methyl)-6-oxo-6,8-dihydro-2H,7H-spiro[furo[2,3-e]isoindole-3,4′-piperidin]-7-yl)piperidine-2,6-dione] returned a DC50 of 10 to 100 nM and a Dmax of 25 to 50%. In experiment [2], this molecule returned a DC50 of 10 to 100 nM and a Dmax of 25 to 50%.

Turning to `O=C1CCC(Nc2ccc3c(c2)OC[C@H]2CN(CC4CCN(c5ccc([C@@H]6c7ccc(O)cc7OC[C@@H]6c6ccccc6)cc5)CC4)CCN32)C(=O)N1` (single isomer, unassigned) [Compound A91, 3-(((R)-3-((1-(4-((3S,4R)-7-hydroxy-3-phenylchroman-4-yl)phenyl)piperidin-4-yl)methyl)-1,2,3,4,4a,5-hexahydrobenzo[b]pyrazino[1,2-d][1,4]oxazin-8-yl)amino)piperidine-2,6-dione hydrochloride], the maximal degradation (Dmax) in experiment [1] and in experiment [2] was 50 to 75% in each case.
